From PMC3673537 (Bioorganic & medicinal chemistry, 2011)
Marks after values point to notes of the source that are not given here.

How the values were obtained:
HapR = test: Western blot against HapR; assay type: cell-based, Vibrio cholerae; settings: Supplementary data
Tcp = test: Western blot against Tcp; assay type: cell-based, Vibrio cholerae; settings: Supplementary data
CqsS [1] = molecular target: T1, CqsS (Vibrio cholerae serotype O1, UniProt Q9KM66); test: Vibrio cholerae agonism bioassay; settings: for % Response at the maximum concentration (50 μM): bioluminescence at 50 μM, with respect to CAI-1 at 100%; for agonist activity (in words): V. cholerae MM920 reporter, up to 50 μM
T1 sequence (Q9KM66 whole entry, looked up): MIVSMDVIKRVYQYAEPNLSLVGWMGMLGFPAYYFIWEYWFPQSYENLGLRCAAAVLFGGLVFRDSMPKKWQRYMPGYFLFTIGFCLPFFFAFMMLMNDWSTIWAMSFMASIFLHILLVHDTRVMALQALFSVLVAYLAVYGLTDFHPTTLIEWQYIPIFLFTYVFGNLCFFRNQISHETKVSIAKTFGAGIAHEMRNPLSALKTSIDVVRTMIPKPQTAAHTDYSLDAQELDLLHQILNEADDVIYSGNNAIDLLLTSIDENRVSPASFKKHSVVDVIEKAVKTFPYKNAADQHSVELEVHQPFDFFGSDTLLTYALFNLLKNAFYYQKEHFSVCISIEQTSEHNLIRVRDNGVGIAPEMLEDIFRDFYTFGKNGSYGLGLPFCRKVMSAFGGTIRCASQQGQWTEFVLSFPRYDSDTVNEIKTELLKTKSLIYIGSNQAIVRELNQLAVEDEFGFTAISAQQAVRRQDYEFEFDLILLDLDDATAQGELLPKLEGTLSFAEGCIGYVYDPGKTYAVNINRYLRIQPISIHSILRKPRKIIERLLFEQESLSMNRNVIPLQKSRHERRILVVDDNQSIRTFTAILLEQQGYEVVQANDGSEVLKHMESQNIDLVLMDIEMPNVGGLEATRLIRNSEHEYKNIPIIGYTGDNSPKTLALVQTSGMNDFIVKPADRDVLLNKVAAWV

CqsS [2] = molecular target: T1, CqsS; test: Vibrio cholerae antagonism bioassay; settings: for antagonist activity (in words): V. cholerae MM920 reporter with 1.0 μM CAI-1, up to 512 μM; for Ratio: IC50 (analog)/IC50 (Ph-CAI-1): using the IC50 of Ph-CAI-1 determined on the same day

CCCCCCCCCC(=O)[C@@H](O)CC [Compound 1, (S)-3-hydroxytridecan-4-one]
expression of HapR (HapR): concomitant expression | expression of Tcp (Tcp): significant reduction

CCCCCC(=O)[C@@H](O)CC [Compound A1, (S)-3-Hydroxynonan-4-one]
% Response at the maximum concentration (50 μM) (CqsS [1]): 27 ^e %

CCCCCCC(=O)[C@@H](O)CC [Compound A2, (S)-3-Hydroxydecan-4-one]
agonist activity (in words) (CqsS [1]): essentially inactive | % Response at the maximum concentration (50 μM) (CqsS [1]): 59 ^e %

CCCCCCCCCCCCC(=O)[C@@H](O)CC [Compound A9, (S)-3-Hydroxyhexadecan-4-one]
agonist activity (in words) (CqsS [1]): essentially inactive

CCCCCCCCCC(=O)C(Cl)CC (stereo not shown) [Compound B8, Cl-CAI-1]
agonist activity (in words) (CqsS [1]): inactive

CCCCCCCCCC(=O)C(O)C(C)(C)C (stereo not shown) [Compound C4, 3-Hydroxy-2,2-dimethyltridecan-4-one]
agonist activity (in words) (CqsS [1]): inactive

CCCCCCCCCC(=O)C(O)c1ccc(C)c(C)c1 (stereo not shown) [Compound C9, 1-Hydroxy-1-(3,4-dimethylphenyl)undecan-2-one]
antagonist activity (in words) (CqsS [2]): abolishes activity

CCCCCCCCCC(=O)C(O)c1ccc(CC)cc1 (stereo not shown) [Compound C10, 1-(4-Ethylphenyl)-1-hydroxyundecan-2-one]
IC50 (CqsS [2]): > 500 µM | antagonist activity (in words) (CqsS [2]): inactive | Ratio: IC50 (analog)/IC50 (Ph-CAI-1) (CqsS [2]): >9

CCCCCCCCCC(=O)C(O)c1ccc(CCC)cc1 (stereo not shown) [Compound C11, 1-Hydroxy-1-(4-propylphenyl)-undecan-2-one]
IC50 (CqsS [2]): > 500 µM | antagonist activity (in words) (CqsS [2]): inactive | Ratio: IC50 (analog)/IC50 (Ph-CAI-1) (CqsS [2]): >9

CCCCCCCCCC(=O)C(O)c1ccc(Br)cc1 (stereo not shown) [Compound C28, 1-(4-Bromophenyl)-1-hydroxyundecan-2-one]
antagonist activity (in words) (CqsS [2]): weak antagonist
